The results in this text go back to publication PMC2857364, “Inhibition of Nitric Oxide (NO) Production in Lipopolysaccharide (LPS)-Activated Murine Macrophage RAW 264.7 Cells by the Norsesterterpene Peroxide, Epimuqubilin A” (Marine Drugs, 2010).

The structures appear in SMILES notation. Counter-ions that a name gives are not always drawn. Like-named read-outs stand apart in the source and are kept apart here.

Series [1] in a line: SRB assay for cytotoxic effect in RAW 264.7 cells under the NO assay condition. It is filed as cell-based, murine. Conditions: mouse, RAW 264.7 macrophage cells (LPS-activated); for activity at 20 h, 20 μg/mL: 20 μg/mL after 20 h incubation in RAW 264.7 cells, read-out: Cytotoxic activity % Survival; for IC50 at 20 h: RAW 264.7 cells, SRB. As to the method:
(§1) In addition, to determine whether the inhibitory effects of compounds on NO production were due to specific pharmacological activities, or non-specific cell cytotoxicity leading to false positive results, RAW 264.7 cell viability was determined by using the sulforhodamine B (SRB) protein staining method. Compounds 1 and 6 mediated a modest cytototoxic response, with 36.1 and 43.0% percent survival, respectively, at the highest concentration tested (20 μg/mL; 51.0 μM). Cytotoxic effects diminished with lower concentrations. […] Further experiments will be performed to determine whether epimuqubilin A inhibits nitrite production via suppression of iNOS expression in the levels of protein.
(§2) The inhibitory effects of samples on NO production were evaluated in LPS-activated murine macrophage RAW 264.7 cells, using a method modified from that previously reported. Briefly, RAW 264.7 cells were cultured in Dulbecco’s modified Eagle’s medium (DMEM) supplemented with penicillin G sodium (100 units/mL), streptomycin sulfate (100 μg/mL), amphotericin B (0.25 μg/mL), and 10% fetal bovine serum (FBS). The cells were seeded in 96-well culture plates with 1 × 10^5 cells/well and incubated for 24 h at 37°C in a humidified atmosphere containing 5% CO2. The cells were treated with samples dissolved in phenol red-free DMEM for 30 min followed by 1 μg/mL of LPS treatment for 20 h. The amount of NO in the cultured medium was measured by the Griess reagent. The standard curve was created by using known concentrations of sodium nitrite, and the absorbance was measured at 540 nm. To evaluate the cytotoxic effect of samples in RAW 264.7 cells in the assay condition, SRB assay was performed. Briefly, after the fixation with 10% trichloroacetic acid (TCA), cells were stained with 0.4% SRB solution in 1% acetic acid followed by dissolving bound SRB in 10 mM Tris-buffer. The optical density was determined at 515 nm.

Series [2] has as its system NO production in LPS-activated murine macrophage RAW 264.7 cells. In words: Assay for NO inhibitory effect using LPS-activated RAW 264.7 cells (Griess reagent). The format is cell-based. Conditions: for IC50: LPS (1 μg/mL, 20 h)-activated RAW 264.7 cells. The method, then: as §2
A general note: Nitrite, measured by Griess reagent, commonly stands in for NO production.

The next series has as its system RAW 264.7 cells. In words: SRB assay for cytotoxic effect in RAW 264.7 cells under the NO assay condition. The format is cell-based, murine. Conditions: for Cytotoxic effects: at 12.8 μM, RAW 264.7 cells, SRB. The method, then:
as §1, §2
(In general: In SRB staining, fixed cells bind dye roughly in proportion to their protein.)

The next series deals with GSK-3β. The format is cell-based, yeast. Conditions: disk alone 7 mm. The method, then: Disruption of four yeast GSK-3 homologs (MCK1, MDS1, MRK1 and YOL128C) in gsk-3 null mutant confers a temperature-sensitive phenotype (growth defect at 37 °C), that can be suppressed by the expression of cloned mammalian GSK-3β [29]. Inhibition of GSK-3β should therefore mimic the phenotype of the gsk-3 null mutant, indicated by growth inhibition of transformant of gsk-3 null with pKT10-GSK-3β only at 37 °C. A genetically modified yeast strain, H10075 with genotype {MAT α his3 leu2 ura3 trp1 ade2 mck1::TRP1 mds1::HIS3 mrk1 yol128c::LEU2 [pKT10-GSK-3β], was grown in 5 mL of liquid media of SC minus uracil, shaking, at 37 °C for 2 days. Four hundred-μL of the yeast culture was added to 100 mL of SC minus uracil agar [0.67% yeast nitrogen base without amino acids and ammonium sulfate, 0.5% ammonium sulfate, 2% D-(+)-glucose anhydrate, 1 mL each of 0.03 mg/mL of adenine (hemisulfate salt), 0.03 mg/mL of L-tryptophan, 0.03 mg/mL of L-leucine, 0.03 mg/mL of L-histidine and 1.5% bacteriological agar, pH 5.6]. […] The Petri dishes were incubated at both 25 °C and 37 °C for 72 hours. Three phenotypes are observed on yeast plates. A clear zone of inhibition (ZOI) at 37 °C and no ZOI at 25 °C indicate that the agent tested inhibits the GSK-3β pathway. The clear zones of inhibition at both 37 and 25 °C of equal width indicate that the agents are cytotoxic. Plates that have a negative phenotype are plates that have no observable ZOI. […] The assays were performed in duplicate.

Turning to `C=C1CCCC2C1(C)CCC(C)C2(C)CCC1(C)CCC(C(C)C(=O)OC)OO1` (stereo not drawn) [Compound 7, sigmosceptrellin B methyl ester], the activity at 20 h, 20 μg/mL in series [1] was greater than 100%. The molecule also registered an IC50 in series [2] (Mus musculus, RAW264.7, 20 h) of 65.7 µM.

`C=C1CCCC2C1(C)CCC(C)C2(C)CCC1(C)CCC(C(C)C(=O)OC)OO1` (stereo not drawn) [Compound 5, sigmosceptrellin A methyl ester]: the “Cytotoxic activity % Survival” value in the series with RAW 264.7 cells (20 μg/mL after 20 h incubation in RAW 264.7 cells, listed as Sigmosceptrellin A methyl ester (5)) stood at 90.6%. The molecule further gave an IC50 in series [2] (listed as Sigmosceptrellin A methyl ester (5)) greater than 100 µM. In addition, in series [2] (LPS-activated RAW 264.7 cells), the “NO inhibitory activity (in words)” value was “inactive”.

`[H]/N=C(/NC)NCCC[C@H](N)C(=O)O` [L-NMMA, L-N^G-Monomethyl Arginine citrate, reference compound]: in series [1], the activity at 20 h, 20 μg/mL was greater than 100%. The IC50 in series [2] (Mus musculus, RAW264.7, 20 h) was 25.5 µM.

In the case of `CC1=C(CC/C(C)=C/CC[C@@]2(C)CC[C@@H]([C@H](C)C(=O)O)OO2)C(C)(C)CCC1` [Compound 1, epimuqubilin A], the Cytotoxic effects result with RAW 264.7 cells was “no significant cytotoxic effects”. The activity at 20 h, 20 μg/mL in series [1] came out at 36.1%. Besides, in series [1], the IC50 at 20 h came to 37.1 µM. In addition, the “Yeast GSK-3β zone of inhibition” value is reported as “no ZOI” in the series with GSK-3β (25 °C, 20 μg/disk); 8 mm in the series with GSK-3β (37 °C, 20 μg/disk); 9 mm in the series with GSK-3β (37 °C, 20 μg/disk, listed as Epimuqubilin A (1)); 10–13 mm in the series with GSK-3β (37 °C, 40 μg/disk); 10 mm in the series with GSK-3β (37 °C, 40 μg/disk, listed as Epimuqubilin A (1)). The same molecule gave a concentration for half-maximal inhibition (IC50) in series [2] (Mus musculus, RAW264.7, 20 h) of 7.4 µM.

In the case of `COC(=O)C(C)C1CCC(C)(CCC=C(C)CCC=C(C)CCC=C(C)C)OO1` (stereo not drawn) [Compound 3], in series [1], the activity at 20 h, 20 μg/mL was greater than 100%. For the same molecule, in series [2] (Mus musculus, RAW264.7, 20 h), the IC50 amounted to 46 µM.

As for `C=C1CCCC(C)(C)C1(O)CC/C(C)=C/CC[C@]1(C)CC[C@H]([C@@H](C)C(=O)OC)OO1` (stereo partly drawn) [Compound 4, epimuqubilin B], in series [1], the activity at 20 h, 20 μg/mL was greater than 100%. Also, the “Yeast GSK-3β zone of inhibition” value is recorded as “no ZOI” with GSK-3β (25 °C, 20 μg/disk); 8 mm in the series with GSK-3β (37 °C, 20 μg/disk); 10–13 mm in the series with GSK-3β (37 °C, 40 μg/disk); 10 mm in the series with GSK-3β (37 °C, 40 μg/disk, listed as Epimuqubilin B (4)). Moreover, the IC50 in series [2] (Mus musculus, RAW264.7, 20 h) was determined as 25.6 µM.

With `Cn1sc(=O)n(Cc2ccccc2)c1=O` [TDZD-8, 4-Benzyl-2-methyl-1,2,4-thiadiazolidine-3,5-dione, reference compound], the “Yeast GSK-3β zone of inhibition” value with GSK-3β (25 °C, 5 μg/disk) is 8 mm; with GSK-3β (25 °C, 10 μg/disk), 9 mm; with GSK-3β (25 °C, 20 μg/disk) it was 10 mm; with GSK-3β (25 °C, 40 μg/disk), 12 mm; in the series with GSK-3β (37 °C, 5 μg/disk), 9 mm; in the series on GSK-3β (37 °C, 10 μg/disk), 10 mm. Also, the “Yeast GSK-3β zone of inhibition” value in the series on GSK-3β (37 °C, 20 μg/disk) amounted to 11 mm; in the series with GSK-3β (37 °C, 40 μg/disk), 15 mm.

Consider `C=C1CCC[C@H]2[C@](C)(CC[C@]3(C)CC[C@H]([C@@H](C)C(=O)O)OO3)[C@@H](C)CC[C@]12C` [Compound 6, sigmosceptrellin A], for which the Cytotoxic effects entry in the series with RAW 264.7 cells was “no significant cytotoxic effects”. The activity at 20 h, 20 μg/mL in series [1] was 43%. Besides, 42.7 µM corresponded to half-maximal inhibition in series [1] (IC50 at 20 h). Moreover, the “Yeast GSK-3β zone of inhibition” value with GSK-3β (25 °C, 20 μg/disk) is recorded as “no ZOI”; in the series with GSK-3β (37 °C, 5 μg/disk) it was 8 mm; in the series with GSK-3β (37 °C, 10 μg/disk), 10 mm; in the series with GSK-3β (37 °C, 20 μg/disk) it was 8 mm; in the series with GSK-3β (37 °C, 20 μg/disk, listed as Sigmosceptrellin A (6)) it was 11 mm; with GSK-3β (37 °C, 40 μg/disk), 10–13 mm. The “Yeast GSK-3β zone of inhibition” value in the series with GSK-3β (37 °C, 40 μg/disk, listed as Sigmosceptrellin A (6)) worked out at 13 mm. Further, in series [2] (Mus musculus, RAW264.7, 20 h), the IC50 was determined as 9.9 µM.

`CC(=O)CCCC(C)(C)C(=O)CCC(C)=CCCC1(C)CCC(C(C)C(=O)O)OO1` (stereo not drawn) [Compound 2, muqubilone B]: the activity at 20 h, 20 μg/mL in series [1] is 99%. Further, in series [2] (Mus musculus, RAW264.7, 20 h), half-maximal inhibition (IC50) required 23.8 µM.

As usually defined, the IC50 is the concentration needed to halve the response being measured.
